Laboratory results as given in ChEMBL document CHEMBL4330122, “Modified ribavirin analogues as antiviral agents against Junín virus” (Bioorg Med Chem Lett, 2019).

Columns and labels:
[1] = Cytotoxicity against human A549 cells assessed as reduction in cell viability after 48 hrs by MTT assay; assay type: cell-based
Junin virus [2] = assay type: functional, organism-based; conditions: Mammarenavirus juninense, IV4454, A549, 48 h
[3] = Cytotoxicity against African green monkey Vero cells assessed as reduction in cell viability after 48 hrs by MTT assay; assay type: cell-based; conditions: chlorocebus sabaeus
Junin virus [4] = assay type: functional, organism-based; conditions: Mammarenavirus juninense, IV4454, Vero, 48 h
in vitro [5] = conditions: human, A549 cells
in vitro [6] = conditions: monkey, Vero cells
[7] = Solubility of the compound in water; assay type: physicochemical

## CC1(C)O[C@H]2[C@H](OCc3cn(CC(Cn4cc(CO[C@@H]5O[C@H](CO)[C@H]6OC(C)(C)O[C@@H]56)nn4)(Cn4cc(CO[C@@H]5O[C@H](CO)[C@H]6OC(C)(C)O[C@@H]56)nn4)Cn4cc(CO[C@@H]5O[C@H](CO)[C@H]6OC(C)(C)O[C@@H]56)nn4)nn3)O[C@H](CO)[C@H]2O1
[1]
  CC50 at 48 h: 209 µM
Junin virus [2]
  EC50: 33.4 µM
[3]
  CC50 at 48 h: 233 µM
Junin virus [4]
  EC50: 35.5 µM
In vitro [5]
  selectivity ratio: 6.2
In vitro [6]
  selectivity ratio: 6.5

## CC1(C)O[C@@H]2[C@H](O1)[C@@H](CO)O[C@H]2n1cc(CO)nn1
[1]
  CC50 at 48 h: > 1000 µM
Junin virus [2]
  EC50: 86.4 µM
[3]
  CC50 at 48 h: > 1000 µM
Junin virus [4]
  EC50: 51.3 µM
In vitro [5]
  selectivity ratio: > 11.6
In vitro [6]
  selectivity ratio: > 19.5

## OC1O[C@H](COCc2cn(CC(Cn3cc(COC[C@H]4OC(O)[C@H](O)[C@@H](O)[C@H]4O)nn3)(Cn3cc(COC[C@H]4OC(O)[C@H](O)[C@@H](O)[C@H]4O)nn3)Cn3cc(COC[C@H]4OC(O)[C@H](O)[C@@H](O)[C@H]4O)nn3)nn2)[C@H](O)[C@H](O)[C@H]1O (stereo partly specified)
[7]
  solubility: > 100 mg/mL
[1]
  CC50 at 48 h: > 1000 µM
Junin virus [2]
  EC50: 314 µM
[3]
  CC50 at 48 h: > 1000 µM
Junin virus [4]
  EC50: 371 µM
In vitro [5]
  selectivity ratio: > 3.2
In vitro [6]
  selectivity ratio: > 2.7

## CC1(C)O[C@H]2[C@H](OCc3cn(CC(Cn4cc(CO[C@@H]5O[C@H](Cn6cc(COC[C@@H](O)[C@H](O)[C@H](O)[C@@H](O)CO)nn6)[C@H]6OC(C)(C)O[C@@H]56)nn4)(Cn4cc(CO[C@@H]5O[C@H](Cn6cc(COC[C@H](O)[C@@H](O)[C@@H](O)[C@H](O)CO)nn6)[C@H]6OC(C)(C)O[C@@H]56)nn4)Cn4cc(CO[C@@H]5O[C@H](Cn6cc(COC[C@H](O)[C@@H](O)[C@@H](O)[C@H](O)CO)nn6)[C@H]6OC(C)(C)O[C@@H]56)nn4)nn3)O[C@H](Cn3cc(COC[C@@H](O)[C@H](O)[C@H](O)[C@@H](O)CO)nn3)[C@H]2O1
[7]
  solubility: > 100 mg/mL
[1]
  CC50 at 48 h: > 1000 µM
Junin virus [2]
  EC50: 314 µM
[3]
  CC50 at 48 h: > 1000 µM
Junin virus [4]
  EC50: > 500 µM
In vitro [5]
  selectivity ratio: > 3.2

## CCCCn1cc(CO[C@@H]2O[C@H](Cn3cc(COC[C@H]4OC(O)[C@H](O)[C@@H](O)[C@H]4O)nn3)[C@H]3OC(C)(C)O[C@@H]23)nn1 (stereo partly specified)
[7]
  solubility: > 100 mg/mL
[1]
  CC50 at 48 h: > 1000 µM
Junin virus [2]
  EC50: 20.6 µM
[3]
  CC50 at 48 h: > 1000 µM
Junin virus [4]
  EC50: 22.1 µM
In vitro [5]
  selectivity ratio: > 48.5
In vitro [6]
  selectivity ratio: > 45.2

## CC(=O)OC[C@H]1O[C@@H](n2cc(CO)nn2)[C@H](OC(C)=O)[C@@H]1OC(C)=O
[1]
  CC50 at 48 h: > 1000 µM
Junin virus [2]
  EC50: 322 µM
[3]
  CC50 at 48 h: > 1000 µM
Junin virus [4]
  EC50: 130 µM
In vitro [5]
  selectivity ratio: > 3.1
In vitro [6]
  selectivity ratio: > 7.7

## CCCCn1cc(COC[C@@H](O)[C@H](O)[C@H](O)[C@@H](O)CO)nn1
[7]
  solubility: > 100 mg/mL
[1]
  CC50 at 48 h: > 1000 µM
Junin virus [2]
  EC50: > 500 µM
[3]
  CC50 at 48 h: > 1000 µM
Junin virus [4]
  EC50: > 500 µM

## CCCCn1cc(CO[C@@H]2O[C@H](Cn3cc(COC[C@@H](O)[C@H](O)[C@H](O)[C@@H](O)CO)nn3)[C@H]3OC(C)(C)O[C@@H]23)nn1
[7]
  solubility: > 100 mg/mL
[1]
  CC50 at 48 h: > 1000 µM
Junin virus [2]
  EC50: 389 µM
[3]
  CC50 at 48 h: > 1000 µM
Junin virus [4]
  EC50: 209 µM
In vitro [5]
  selectivity ratio: > 2.6
In vitro [6]
  selectivity ratio: > 4.8

## CCCCn1cc(COC[C@H]2OC(O)[C@H](O)[C@@H](O)[C@H]2O)nn1 (stereo partly specified)
[7]
  solubility: > 100 mg/mL
[1]
  CC50 at 48 h: > 1000 µM
Junin virus [2]
  EC50: 113 µM
[3]
  CC50 at 48 h: > 1000 µM
Junin virus [4]
  EC50: 371 µM
In vitro [5]
  selectivity ratio: > 8.9
In vitro [6]
  selectivity ratio: > 2.7

## OC[C@@H](O)[C@H](O)[C@H](O)[C@@H](O)COCc1cn(CC(Cn2cc(COC[C@@H](O)[C@H](O)[C@H](O)[C@@H](O)CO)nn2)(Cn2cc(COC[C@@H](O)[C@H](O)[C@H](O)[C@@H](O)CO)nn2)Cn2cc(COC[C@@H](O)[C@H](O)[C@H](O)[C@@H](O)CO)nn2)nn1
[7]
  solubility: > 100 mg/mL
[1]
  CC50 at 48 h: > 1000 µM
Junin virus [2]
  EC50: > 500 µM
[3]
  CC50 at 48 h: > 1000 µM
Junin virus [4]
  EC50: > 500 µM

## OCc1cn([C@@H]2O[C@H](CO)[C@@H](O)[C@H]2O)nn1
[1]
  CC50 at 48 h: > 1000 µM
Junin virus [2]
  EC50: 50.7 µM
[3]
  CC50 at 48 h: > 1000 µM
Junin virus [4]
  EC50: 215 µM
In vitro [5]
  selectivity ratio: > 19.7
In vitro [6]
  selectivity ratio: > 4.7

## CCCCn1cc(CO[C@@H]2O[C@H](CO)[C@H]3OC(C)(C)O[C@@H]23)nn1
[1]
  CC50 at 48 h: > 1000 µM
Junin virus [2]
  EC50: 55.9 µM
[3]
  CC50 at 48 h: > 1000 µM
Junin virus [4]
  EC50: 57.2 µM
In vitro [5]
  selectivity ratio: > 17.9
In vitro [6]
  selectivity ratio: > 17.5

## CC1(C)O[C@H]2[C@H](OCc3cn(CC(Cn4cc(CO[C@@H]5O[C@H](Cn6cc(COC[C@H]7OC(O)[C@H](O)[C@@H](O)[C@H]7O)nn6)[C@H]6OC(C)(C)O[C@@H]56)nn4)(Cn4cc(CO[C@@H]5O[C@H](Cn6cc(COC[C@H]7OC(O)[C@H](O)[C@@H](O)[C@H]7O)nn6)[C@H]6OC(C)(C)O[C@@H]56)nn4)Cn4cc(CO[C@@H]5O[C@H](Cn6cc(COC[C@H]7OC(O)[C@H](O)[C@@H](O)[C@H]7O)nn6)[C@H]6OC(C)(C)O[C@@H]56)nn4)nn3)O[C@H](Cn3cc(COC[C@H]4OC(O)[C@H](O)[C@@H](O)[C@H]4O)nn3)[C@H]2O1 (stereo partly specified)
[7]
  solubility: > 100 mg/mL
[1]
  CC50 at 48 h: > 1000 µM
Junin virus [2]
  EC50: > 500 µM
[3]
  CC50 at 48 h: > 1000 µM
Junin virus [4]
  EC50: > 500 µM

## NC(=O)c1ncn([C@@H]2O[C@H](CO)[C@@H](O)[C@H]2O)n1 [RIBAVIRIN]
[1]
  CC50 at 48 h: 307 µM
Junin virus [2]
  EC50: 19.2 µM
[3]
  CC50 at 48 h: > 400 µM
In vitro [5]
  selectivity ratio: 15.9
In vitro [6]
  selectivity ratio: > 21.6

## OC[C@H]1O[C@@H](n2cc(COCC(COCc3cn([C@@H]4O[C@H](CO)[C@@H](O)[C@H]4O)nn3)(COCc3cn([C@@H]4O[C@H](CO)[C@@H](O)[C@H]4O)nn3)COCc3cn([C@@H]4O[C@H](CO)[C@@H](O)[C@H]4O)nn3)nn2)[C@H](O)[C@@H]1O
[1]
  CC50 at 48 h: > 1000 µM
Junin virus [2]
  EC50: > 500 µM
[3]
  CC50 at 48 h: > 1000 µM
Junin virus [4]
  EC50: > 500 µM

## CC1(C)O[C@@H]2[C@H](O1)[C@@H](CO)O[C@H]2n1cc(COCC(COCc2cn([C@@H]3O[C@H](CO)[C@H]4OC(C)(C)O[C@H]43)nn2)(COCc2cn([C@@H]3O[C@H](CO)[C@H]4OC(C)(C)O[C@H]43)nn2)COCc2cn([C@@H]3O[C@H](CO)[C@H]4OC(C)(C)O[C@H]43)nn2)nn1
[1]
  CC50 at 48 h: > 1000 µM
Junin virus [2]
  EC50: > 500 µM
[3]
  CC50 at 48 h: > 1000 µM
Junin virus [4]
  EC50: > 500 µM

## CC1(C)O[C@H]2[C@H](OCc3cn(CC(Cn4cc(CO[C@@H]5O[C@H](CN=[N+]=[N-])[C@H]6OC(C)(C)O[C@@H]56)nn4)(Cn4cc(CO[C@@H]5O[C@H](CN=[N+]=[N-])[C@H]6OC(C)(C)O[C@@H]56)nn4)Cn4cc(CO[C@@H]5O[C@H](CN=[N+]=[N-])[C@H]6OC(C)(C)O[C@@H]56)nn4)nn3)O[C@H](CN=[N+]=[N-])[C@H]2O1 (stereo partly specified)
[1]
  CC50 at 48 h: > 1000 µM
Junin virus [2]
  EC50: > 500 µM
[3]
  CC50 at 48 h: > 1000 µM
Junin virus [4]
  EC50: > 500 µM

## CCCCn1cc(CO[C@@H]2O[C@H](CN=[N+]=[N-])[C@H]3OC(C)(C)O[C@@H]23)nn1
[1]
  CC50 at 48 h: 525 µM
Junin virus [2]
  EC50: 13.6 µM
[3]
  CC50 at 48 h: 762 µM
Junin virus [4]
  EC50: 13.2 µM
In vitro [5]
  selectivity ratio: 38.5
In vitro [6]
  selectivity ratio: 57.9

## CC(=O)OC[C@H]1O[C@@H](n2cc(COCC(COCc3cn([C@@H]4O[C@H](COC(C)=O)[C@@H](OC(C)=O)[C@H]4OC(C)=O)nn3)(COCc3cn([C@@H]4O[C@H](COC(C)=O)[C@@H](OC(C)=O)[C@H]4OC(C)=O)nn3)COCc3cn([C@@H]4O[C@H](COC(C)=O)[C@@H](OC(C)=O)[C@H]4OC(C)=O)nn3)nn2)[C@H](OC(C)=O)[C@@H]1OC(C)=O
[1]
  CC50 at 48 h: > 1000 µM
Junin virus [2]
  EC50: > 500 µM
[3]
  CC50 at 48 h: > 1000 µM
Junin virus [4]
  EC50: > 500 µM

## CC1(C)O[C@@H]2[C@H](O1)[C@@H](Cn1cc(COC[C@@H](O)[C@H](O)[C@H](O)[C@@H](O)CO)nn1)O[C@H]2n1cc(COCC(COCc2cn([C@@H]3O[C@H](Cn4cc(COC[C@@H](O)[C@H](O)[C@H](O)[C@@H](O)CO)nn4)[C@H]4OC(C)(C)O[C@H]43)nn2)(COCc2cn([C@@H]3O[C@H](Cn4cc(COC[C@H](O)[C@@H](O)[C@@H](O)[C@H](O)CO)nn4)[C@H]4OC(C)(C)O[C@H]43)nn2)COCc2cn([C@@H]3O[C@H](Cn4cc(COC[C@H](O)[C@@H](O)[C@@H](O)[C@H](O)CO)nn4)[C@H]4OC(C)(C)O[C@H]43)nn2)nn1
[7]
  solubility: > 100 mg/mL
[1]
  CC50 at 48 h: > 1000 µM
Junin virus [2]
  EC50: > 500 µM
[3]
  CC50 at 48 h: > 1000 µM
Junin virus [4]
  EC50: > 500 µM
